Measured values: US20240294519A1, “PYRROLO[2,3-b]PYRIDINE PGDH INHIBITORS AND METHODS OF MAKING AND USING” (EPIRIUM BIO INC., priority 2021, published 2024)

Target: T1, 15-PGDH/HPGD (Homo sapiens, UniProt P15428)
T1 construct: purchased R&D System 5660-DH
T1 sequence (P15428 1-266): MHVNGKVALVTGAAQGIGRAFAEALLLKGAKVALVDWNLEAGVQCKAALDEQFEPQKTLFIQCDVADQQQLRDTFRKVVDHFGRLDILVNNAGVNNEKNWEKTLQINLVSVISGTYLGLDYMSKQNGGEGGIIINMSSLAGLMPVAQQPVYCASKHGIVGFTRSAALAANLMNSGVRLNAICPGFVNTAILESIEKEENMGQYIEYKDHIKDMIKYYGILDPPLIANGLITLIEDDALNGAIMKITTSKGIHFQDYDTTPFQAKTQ
Assay: hPGDH inhibitor screening biochemical assay
Conditions: 10 nM enzyme, 15 μM PGE2, 0.25 mM NAD, fluorescence ex/em 340/485 nm
Method: A hydroxyprostaglandin dehydrogenase inhibition screening biochemical assay can be performed to assess the synthesized inhibitors provided herein. Provided herein is an exemplary biochemical assay for hPGDH inhibitor screening.
The in vitro biochemical assay can be performed in white, 384 plates in total 20 μl reaction volume consisting of 10 nM of 15-PGDH/HPGD (R&D System #5660-DH), 15 μM Prostaglandin E2 (Sigma, C8 t #P5640-10 MG) and 0.25 mM β-Nicotinamide adenine dinucleotide sodium salt (Sigma, C8 t #N0632-5G) made in reaction buffer (50 mM Tris-HCl, pH 7.5, 0.01% Tween 20) at 10-point dose response curve for test/tool compounds. Briefly, 5 μl (4×) of compounds solution and 5 μl (final concentration, 10 nM) of enzyme solution is added to white 384 well plates and incubated for 10 mins at 37° C. 5 μl (4×) of […] and 5 μl (4×) of β-Nicotinamide adenine dinucleotide sodium salt is added to the wells and incubated for 10 mins at room temperature. Fluorescence is recorded at ex/em=340 nm/485 nm. The percentage (%) inhibition of enzyme activity was determined relative to positive control (1% DMSO) and IC50 was calculated using GraphPad prism software (four parameter-variable slope equation).

IC50 [nM] | SMILES
< 100 | C[C@H]1CN(C(=O)c2cnc3c(ccn3-c3ccc(N4CCOC4=O)nc3)c2)CCC1(F)F [Compound B-76]
< 100 | CC(C)c1nnc(-c2ccc(-n3ccc4cc(C(=O)N5CCC(F)(F)CC5)cnc43)cc2)[nH]1 [Compound B-58]
100 to 1000 | O=C(c1cnc2c(ccn2-c2cnn(CC(F)(F)F)c2)c1)N1CCCC(C(F)(F)F)C1 (stereo not drawn) [Compound B-59]
< 100 | CO[C@@H]1CCN(C(=O)c2cnc3c(ccn3-c3ccc(-c4ncn[nH]4)nc3)c2)C1 [Compound B-44]
< 100 | N#Cc1cc(-c2nnc[nH]2)cc(-n2ccc3cc(C(=O)N4CCC(F)(F)CC4)cnc32)c1 [Compound B-274]
< 100 | CO[C@H]1CCCN(C(=O)c2cnc3c(ccn3-c3cc(Cl)cc(-c4nnc[nH]4)c3)c2)C1 [Compound B-250]
< 100 | O=C(c1cnc2c(ccn2-c2ccc(-c3cnc[nH]3)cc2)c1)N1CCC(F)(F)CC1 [Compound B-226]
< 100 | O=C(c1cnc2c(ccn2-c2ccc(N3CCNC3=O)nc2)c1)N1CCC(F)(F)CC1 [Compound B-2]
< 100 | COC(=O)Nc1cncc(-n2ccc3cc(C(=O)N4CCC[C@@H](C(F)(F)F)C4)cnc32)c1 [Compound B-66]
< 100 | Cc1nc(-c2ccc(-n3ccc4cc(C(=O)N5CCC(F)(F)CC5)cnc43)cn2)c[nH]1 [Compound B-16, (4,4-difluoropiperidin-1-yl)(1-(6-(2-methyl-1H-imidazol-4-yl)pyridin-3-yl)-1H-pyrrolo[2,3-b]pyridin-5-yl)methanone]
< 100 | O=C(O)c1ccc(-n2ccc3cc(C(=O)N4CC[C@H](F)C4)cnc32)cc1 [Compound B-8]
< 100 | C[C@H]1CCCN(C(=O)c2cnc3c(ccn3-c3ccc(-c4nnc[nH]4)nc3)c2)C1 [Compound B-28]
< 100 | Cc1nc(-c2cncc(-n3ccc4cc(C(=O)N5CCC(F)(F)CC5)cnc43)c2)c[nH]1 [Compound B-15]
< 100 | Cc1[nH]nnc1-c1ccc(-n2ccc3cc(C(=O)N4CCC(F)(F)CC4)cnc32)cn1 [Compound B-19, (4,4-difluoropiperidin-1-yl)(1-(6-(5-methyl-1H-1,2,3-triazol-4-yl)pyridin-3-yl)-1H-pyrrolo[2,3-b]pyridin-5-yl)methanone]
< 100 | CO[C@H]1CCCN(C(=O)c2cnc3c(ccn3-c3cc(F)cc(-c4nnc[nH]4)c3)c2)C1 [Compound B-242]
< 100 | CCOC(=O)Nc1cncc(-n2ccc3cc([S+]([O-])C4CC4)cnc32)c1 (stereo not drawn) [Compound B-315]
< 100 | CO[C@@H]1CCCN(C(=O)c2cnc3c(ccn3-c3ccc(-c4nnc[nH]4)c(Cl)c3)c2)C1 [Compound B-245]
< 100 | C[C@H]1CCN(C(=O)c2cnc3c(ccn3-c3ccc(C(=O)O)cc3)c2)C1 [Compound B-7]
< 100 | Cc1nnc(-c2ccc(-n3ccc4cc(C(=O)N5CCC(F)(F)CC5)cnc43)cc2)[nH]1 [Compound B-74]
< 100 | Cc1ccc(-c2nnc[nH]2)cc1-n1ccc2cc(C(=O)N3CCC(F)(F)CC3)cnc21 [Compound B-271]
< 100 | O=C(O)c1ccc(-n2ccc3cc(C(=O)N4CCC(F)(F)CC4)cnc32)cc1F [Compound B-27, 4-(5-(4,4-difluoropiperidine-1-carbonyl)-1H-pyrrolo[2,3-b]pyridin-1-yl)-2-fluorobenzoic acid]
< 100 | O=C(c1cnc2c(ccn2-c2ccc(-c3nnc[nH]3)cc2)c1)N1CCCC(F)(F)C1 [Compound B-61]
< 100 | O=C(c1cnc2c(ccn2-c2ccc(-c3nnc[nH]3)cc2)c1)N1CCC(F)(F)CC1 [Compound B-26, (1-(4-(1H-1,2,4-triazol-5-yl)phenyl)-1H-pyrrolo[2,3-b]pyridin-5-yl)(4,4-difluoropiperidin-1-yl)methanone]

IC50 [nM] | SMILES
< 100 | C[C@@]1(O)CCCN(C(=O)c2cnc3c(ccn3-c3cccc(-c4nnc[nH]4)c3)c2)C1 [Compound B-244]
< 100 | C[C@H]1CCCN(C(=O)c2cnc3c(ccn3-c3ccc(C(=O)O)cc3)c2)C1 [Compound B-4]
< 100 | O=C(Nc1cncc(-n2ccc3cc(C(=O)N4CCC(F)(F)CC4)cnc32)c1)C1CCC(F)(F)CC1 [Compound B-237]
< 100 | O=C(c1cnc2c(ccn2-c2ccc3nc(N4CCOCC4)nn3c2)c1)N1CCCC(F)(F)C1 [Compound B-60]
< 100 | C[C@H]1CCCN(C(=O)c2cnc3c(ccn3-c3cccc(-c4nc[nH]n4)c3)c2)C1 [Compound B-37, (S)-(1-(3-(1H-1,2,4-triazol-3-yl)phenyl)-1H-pyrrolo[2,3-b]pyridin-5-yl)(3-methylpiperidin-1-yl)methanone]
< 100 | C[C@@H]1CCN(C(=O)c2cnc3c(ccn3-c3ccc(C(=O)O)cc3)c2)C1 [Compound B-5]
< 100 | C[C@@]1(O)CCCN(C(=O)c2cnc3c(ccn3-c3ccc(-c4nnc[nH]4)cc3)c2)C1 [Compound B-243]
< 100 | Nc1nc(-c2cncc(-n3ccc4cc(C(=O)N5CCC(F)(F)CC5)cnc43)c2)no1 [Compound B-11, (1-(5-(5-amino-1,2,4-oxadiazol-3-yl)pyridin-3-yl)-1H-pyrrolo [2,3-b]pyridin-5-yl)(4,4-difluoropiperidin-1-yl)methanone]
< 100 | Cc1cc(-n2ccc3cc(C(=O)N4CCC(F)(F)CC4)cnc32)ccc1C(=O)O [Compound B-270]
< 100 | Nc1nnc(-c2ccc(-n3ccc4cc(C(=O)N5CCC(F)(F)CC5)cnc43)cc2)[nH]1 [Compound B-78, (1-(4-(5-amino-4H-1,2,4-triazol-3-yl)phenyl)-1H-pyrrolo[2,3-b]pyridin-5-yl)(4,4-difluoropiperidin-1-yl)methanone]
< 100 | O=C(Nc1cncc(-n2ccc3cc(C(=O)N4CCC(F)(F)CC4)cnc32)c1)C1CC1 [Compound B-93]
< 100 | COC(=O)Nc1cncc(-n2ccc3cc(C(=O)N4CCC[C@H](C(F)(F)F)C4)cnc32)c1 [Compound B-65]
< 100 | COc1ccc(Cn2cc(-c3cncc(-n4ccc5cc(C(=O)N6CCC(F)(F)CC6)cnc54)c3)nc2C)cc1 [Compound B-23, (4,4-difluoropiperidin-1-yl)(1-(5-(1-(4-methoxybenzyl)-2-methyl-1H-imidazol-4-yl)pyridin-3-yl)-1H-pyrrolo [2,3-b]pyridin-5-yl)methanone]
< 100 | CC1CN(C(=O)c2cnc3c(ccn3-c3ccc(-c4nc(N)n[nH]4)nc3)c2)CCO1 (stereo not drawn) [Compound B-49, (1-(6-(3-amino-1H-1,2,4-triazol-5-yl)pyridin-3-yl)-1H-pyrrolo [2,3-b]pyridin-5-yl)(2-methylmorpholino)methanone]
< 100 | Cc1cnc(-c2cncc(-n3ccc4cc(C(=O)N5CCC(F)(F)CC5)cnc43)c2)[nH]1 [Compound B-14]
< 100 | CO[C@H]1CCCN(C(=O)c2cnc3c(ccn3-c3ccc(-c4nnc[nH]4)c(F)c3)c2)C1 [Compound B-247]
< 100 | O=C(c1cnc2c(ccn2-c2ccc(-c3nnc[nH]3)c(F)c2)c1)N1CCSCC1 [Compound B-254]
< 100 | CCn1cc(-n2ccc3cc(C(=O)N4CCC(F)(F)CC4)cnc32)cn1 [Compound B-95]
< 100 | C[C@H]1CCCN(C(=O)c2cnc3c(ccn3-c3ccc(-c4nc[nH]n4)cc3)c2)C1 [Compound B-33, (S)-(1-(4-(1H-1,2,4-triazol-3-yl)phenyl)-1H-pyrrolo[2,3-b]pyridin-5-yl)(3-methylpiperidin-1-yl)methanone]
< 100 | O=C(c1cnc2c(ccn2-c2cc(-c3nnc[nH]3)ccc2F)c1)N1CCC(F)(F)CC1 [Compound B-272]
100 to 1000 | COCCn1cc(-n2ccc3cc(C(=O)N4CCC(F)(F)CC4)cnc32)cn1 [Compound B-62]
< 100 | CN1CCN(c2ccc(-n3ccc4cc(C(=O)N5CCC(F)(F)CC5)cnc43)cn2)C1=O [Compound B-91]
